Experimental findings from ChEMBL document CHEMBL3758169, “4-Aminoindazolyl-dihydrofuro[3,4-d]pyrimidines as non-covalent inhibitors of mutant epidermal growth factor receptor tyrosine kinase” (Bioorg Med Chem Lett, 2016) are described below.

In data set [1] the target is Dual specificity mitogen-activated protein kinase kinase 2 (Homo sapiens) (UniProt P36507). The experiment in a line: Inhibition of MEK2 (unknown origin) at 100 nM.
Data set [2] addresses Mitogen-activated protein kinase kinase kinase 3 (Homo sapiens) (UniProt Q99759). Description: Inhibition of MEKK3 (unknown origin) at 100 nM.
Data set [3] has as its target Serine/threonine-protein kinase MRCK alpha (Homo sapiens) (UniProt Q5VT25). Description: Inhibition of MRCKalpha (unknown origin) at 100 nM.
Data set [4] concerns the target Serine/threonine-protein kinase 3 (Homo sapiens) (UniProt Q13188). Description: Inhibition of MST2 (unknown origin) at 100 nM.
Data set [5] has as its target Misshapen-like kinase 1 (Homo sapiens) (UniProt Q8N4C8). The experiment in a line: Inhibition of MINK1 (unknown origin) at 100 nM.
Data set [6] addresses Muscle, skeletal receptor tyrosine-protein kinase (Homo sapiens) (UniProt O15146). The experiment in a line: Inhibition of MUSK (unknown origin) at 100 nM.
The target of data set [7] is Serine/threonine-protein kinase Nek6 (Homo sapiens) (UniProt Q9HC98). The experiment in a line: Inhibition of NEK6 (unknown origin) at 100 nM.
Data set [8] has as its target Platelet-derived growth factor receptor alpha (Homo sapiens) (UniProt P16234). The experiment in a line: Inhibition of PDGFRalpha (unknown origin) at 100 nM.
For data set [9], the system named is Platelet-derived growth factor receptor alpha (Homo sapiens), P16234 [D842V]. Description: Inhibition of PDGFRalpha D842V mutant (unknown origin) at 100 nM.
The target of data set [10] is Phosphatidylinositol 4,5-bisphosphate 3-kinase catalytic subunit delta isoform (Homo sapiens) (UniProt O00329). Description: Inhibition of PI3KD (unknown origin) at 100 nM.
The target of data set [11] is Protein kinase C alpha type (Homo sapiens) (UniProt P17252). Description: Inhibition of PKCalpha (unknown origin) at 100 nM.
In data set [12] the target is Serine/threonine-protein kinase PLK1 (Homo sapiens) (UniProt P53350). Description: Inhibition of PLK1 (unknown origin) at 100 nM.
Data set [13] deals with Phosphorylase b kinase gamma catalytic chain, liver/testis isoform (Homo sapiens) (UniProt P15735). Description: Inhibition of PHKgamma2 (unknown origin) at 100 nM.
Phosphorylase b kinase gamma catalytic chain, liver/testis isoform (Homo sapiens), sequence (P15735 whole entry, canonical isoform): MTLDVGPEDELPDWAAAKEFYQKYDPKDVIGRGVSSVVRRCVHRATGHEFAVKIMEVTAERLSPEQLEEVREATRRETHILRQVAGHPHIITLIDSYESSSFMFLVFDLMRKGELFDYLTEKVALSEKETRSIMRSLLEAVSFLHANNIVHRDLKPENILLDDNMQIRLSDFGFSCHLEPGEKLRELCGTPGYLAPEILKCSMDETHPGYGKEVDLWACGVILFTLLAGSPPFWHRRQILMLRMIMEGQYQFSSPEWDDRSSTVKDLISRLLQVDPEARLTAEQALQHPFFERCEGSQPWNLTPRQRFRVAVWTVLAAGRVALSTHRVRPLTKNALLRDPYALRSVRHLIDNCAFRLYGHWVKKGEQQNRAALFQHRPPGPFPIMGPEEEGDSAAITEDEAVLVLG
The target of data set [14] is Receptor-interacting serine/threonine-protein kinase 2 (Homo sapiens) (UniProt O43353). Description: Inhibition of RIPK2 (unknown origin) at 100 nM.
For data set [15], the target named is Serine/threonine-protein kinase Sgk1 (Homo sapiens) (UniProt O00141). The experiment in a line: Inhibition of SGK1 (unknown origin) at 100 nM.
For data set [16], the target named is Serine/threonine-protein kinase TAO1 (Homo sapiens) (UniProt Q7L7X3). Description: Inhibition of TAO1 (unknown origin) at 100 nM.
For data set [17], the target named is Serine/threonine-protein kinase TAO3 (Homo sapiens) (UniProt Q9H2K8). Description: Inhibition of TAO3 (unknown origin) at 100 nM.
Data set [18] addresses Testis-specific serine/threonine-protein kinase 2 (Homo sapiens) (UniProt Q96PF2). The experiment in a line: Inhibition of TSSK2 (unknown origin) at 100 nM.
Data set [19] has as its target Serine/threonine-protein kinase WNK2 (Homo sapiens) (UniProt Q9Y3S1). Description: Inhibition of WNK2 (unknown origin) at 100 nM.
In data set [20] the target is Serine/threonine-protein kinase 25 (Homo sapiens) (UniProt O00506). Description: Inhibition of YSK1 (unknown origin) at 100 nM.
The target of data set [21] is Mitogen-activated protein kinase 12 (Homo sapiens) (UniProt P53778). The experiment in a line: Inhibition of p38gamma(unknown origin) at 100 nM.
Data set [22] deals with Epidermal growth factor receptor (Homo sapiens, UniProt P00533, L858R/T790M). The experiment in a line: Inhibition of EGFR T790M/L858R mutant autophosphorylation in human H1975 cells. In kind it is cell-based.
Data set [23] can be described thus: Oral bioavailability in rat at 5 mg/kg. The class given is ADME, organism-based. The settings on record: in vivo.
The target of data set [24] is Activin receptor type-1B (Homo sapiens) (UniProt P36896). The experiment in a line: Inhibition of ACVR1B (unknown origin) at 100 nM.
Data set [25] addresses Activin receptor type-1 (Homo sapiens) (UniProt Q04771). Description: Inhibition of ALK2 (unknown origin) at 100 nM.
In data set [26] the target is Mitogen-activated protein kinase kinase kinase 5 (Homo sapiens) (UniProt Q99683). The experiment in a line: Inhibition of ASK1 (unknown origin) at 100 nM.
In data set [27] the target is Aurora kinase C (Homo sapiens) (UniProt Q9UQB9). Description: Inhibition of Aurora C (unknown origin) at 100 nM.
In data set [28] the target is Cyclin-dependent kinase 5/CDK5 activator 1 (Homo sapiens) (UniProt Q00535+Q15078). The experiment in a line: Inhibition of CDK5/p35 (unknown origin) at 100 nM. The class given is protein-complex assay.
Cyclin-dependent kinase 5/CDK5 activator 1 (Homo sapiens), sequence (Q00535 whole entry): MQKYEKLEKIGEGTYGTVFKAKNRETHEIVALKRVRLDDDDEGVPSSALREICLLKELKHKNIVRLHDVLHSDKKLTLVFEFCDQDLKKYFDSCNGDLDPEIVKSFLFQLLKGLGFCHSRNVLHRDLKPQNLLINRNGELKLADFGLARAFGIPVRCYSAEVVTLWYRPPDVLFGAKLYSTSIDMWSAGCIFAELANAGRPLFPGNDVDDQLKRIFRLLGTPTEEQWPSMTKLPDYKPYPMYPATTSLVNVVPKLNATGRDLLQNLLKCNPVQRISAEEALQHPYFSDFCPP
Cyclin-dependent kinase 5/CDK5 activator 1 (Homo sapiens), sequence (Q15078 99-307 partner limits assumed): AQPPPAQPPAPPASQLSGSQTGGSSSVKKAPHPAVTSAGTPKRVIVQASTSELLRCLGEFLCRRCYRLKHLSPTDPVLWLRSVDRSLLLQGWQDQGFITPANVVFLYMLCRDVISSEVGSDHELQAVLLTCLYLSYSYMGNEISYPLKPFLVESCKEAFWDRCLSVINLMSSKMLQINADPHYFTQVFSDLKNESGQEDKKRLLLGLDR
In data set [29] the target is CDK9/Cyclin K (Homo sapiens) (UniProt P50750+O75909). Description: Inhibition of CDK9/cyclinK (unknown origin) at 100 nM. In kind it is protein-complex assay.
Data set [30] concerns the target Dual specificity protein kinase CLK2 (Homo sapiens) (UniProt P49760). Description: Inhibition of CLK2 (unknown origin) at 100 nM.
Data set [31] deals with Dual specificity protein kinase CLK4 (Homo sapiens) (UniProt Q9HAZ1). Description: Inhibition of CLK4 (unknown origin) at 100 nM.
Data set [32] concerns the target Calcium/calmodulin-dependent protein kinase type II subunit delta (Homo sapiens) (UniProt Q13557). The experiment in a line: Inhibition of CamKIIdelta (unknown origin) at 100 nM.
Data set [33] has as its target Epithelial discoidin domain-containing receptor 1 (Homo sapiens) (UniProt Q08345). Description: Inhibition of DDR1 (unknown origin) at 100 nM.
In data set [34] the target is Ephrin type-A receptor 1 (Homo sapiens) (UniProt P21709). The experiment in a line: Inhibition of EPHA1 (unknown origin) at 100 nM.
Ephrin type-A receptor 1 (Homo sapiens), sequence (P21709 whole entry): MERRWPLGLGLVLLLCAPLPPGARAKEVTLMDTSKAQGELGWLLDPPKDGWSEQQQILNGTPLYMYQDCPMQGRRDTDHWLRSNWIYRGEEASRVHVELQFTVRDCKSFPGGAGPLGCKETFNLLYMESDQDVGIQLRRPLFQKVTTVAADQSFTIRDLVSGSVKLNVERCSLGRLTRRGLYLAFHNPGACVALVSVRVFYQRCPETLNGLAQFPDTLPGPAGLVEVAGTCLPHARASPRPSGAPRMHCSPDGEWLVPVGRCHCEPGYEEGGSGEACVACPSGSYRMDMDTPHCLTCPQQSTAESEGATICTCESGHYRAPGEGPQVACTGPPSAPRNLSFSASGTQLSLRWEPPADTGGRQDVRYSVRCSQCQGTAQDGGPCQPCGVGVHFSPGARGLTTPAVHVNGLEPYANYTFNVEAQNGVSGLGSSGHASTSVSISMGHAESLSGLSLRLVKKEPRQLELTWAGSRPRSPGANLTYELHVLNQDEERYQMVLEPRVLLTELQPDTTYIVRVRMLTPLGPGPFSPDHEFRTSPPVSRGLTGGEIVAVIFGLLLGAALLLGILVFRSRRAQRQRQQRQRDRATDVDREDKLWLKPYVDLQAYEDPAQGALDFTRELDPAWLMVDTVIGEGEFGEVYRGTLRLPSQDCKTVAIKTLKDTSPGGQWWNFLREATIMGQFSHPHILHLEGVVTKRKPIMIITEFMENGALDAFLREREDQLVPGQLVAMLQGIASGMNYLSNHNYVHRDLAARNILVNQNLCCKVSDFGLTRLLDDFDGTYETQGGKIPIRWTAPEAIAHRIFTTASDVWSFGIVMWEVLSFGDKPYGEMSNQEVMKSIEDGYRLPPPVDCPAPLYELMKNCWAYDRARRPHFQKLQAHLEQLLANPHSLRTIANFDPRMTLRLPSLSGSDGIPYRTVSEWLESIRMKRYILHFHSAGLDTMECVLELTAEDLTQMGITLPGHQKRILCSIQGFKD
In data set [35] the target is Ephrin type-A receptor 4 (Homo sapiens) (UniProt P54764). Description: Inhibition of EPHA4 (unknown origin) at 100 nM.
The target of data set [36] is Ephrin type-B receptor 4 (Homo sapiens) (UniProt P54760). The experiment in a line: Inhibition of EPHB4 (unknown origin) at 100 nM.
Ephrin type-B receptor 4 (Homo sapiens), sequence (P54760 whole entry): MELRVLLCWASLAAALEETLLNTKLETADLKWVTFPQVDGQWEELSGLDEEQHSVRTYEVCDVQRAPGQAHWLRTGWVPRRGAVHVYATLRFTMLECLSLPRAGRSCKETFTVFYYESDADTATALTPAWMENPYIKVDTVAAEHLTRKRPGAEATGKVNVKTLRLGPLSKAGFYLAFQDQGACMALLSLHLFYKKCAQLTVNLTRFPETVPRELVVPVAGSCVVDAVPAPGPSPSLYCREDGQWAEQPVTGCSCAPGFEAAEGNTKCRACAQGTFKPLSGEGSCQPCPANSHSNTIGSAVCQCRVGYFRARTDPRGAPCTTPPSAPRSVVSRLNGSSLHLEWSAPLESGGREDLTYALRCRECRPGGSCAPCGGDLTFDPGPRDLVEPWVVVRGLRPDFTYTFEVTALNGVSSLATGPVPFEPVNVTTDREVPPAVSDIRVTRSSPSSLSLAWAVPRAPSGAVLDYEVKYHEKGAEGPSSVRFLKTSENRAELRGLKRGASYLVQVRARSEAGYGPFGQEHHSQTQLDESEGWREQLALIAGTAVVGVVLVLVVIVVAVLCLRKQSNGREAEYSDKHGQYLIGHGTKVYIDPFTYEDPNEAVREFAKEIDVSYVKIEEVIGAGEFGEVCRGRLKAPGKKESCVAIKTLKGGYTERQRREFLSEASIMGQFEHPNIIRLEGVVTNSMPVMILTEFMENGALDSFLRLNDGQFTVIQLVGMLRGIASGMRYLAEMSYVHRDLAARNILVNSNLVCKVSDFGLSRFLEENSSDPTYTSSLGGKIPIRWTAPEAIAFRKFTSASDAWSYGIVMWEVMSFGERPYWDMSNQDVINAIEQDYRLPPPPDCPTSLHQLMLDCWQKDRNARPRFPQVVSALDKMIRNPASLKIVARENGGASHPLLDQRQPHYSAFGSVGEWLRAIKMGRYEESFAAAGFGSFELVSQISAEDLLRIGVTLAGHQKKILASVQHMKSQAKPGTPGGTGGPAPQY
Data set [37] addresses Tyrosine-protein kinase Fgr (Homo sapiens) (UniProt P09769). Description: Inhibition of FGR (unknown origin) at 100 nM.
The target in data set [38] is Tyrosine-protein kinase HCK (Homo sapiens) (UniProt P08631). The experiment in a line: Inhibition of HCK (unknown origin) at 100 nM.
For data set [39], the target named is Tyrosine-protein kinase JAK3 (Homo sapiens) (UniProt P52333). The experiment in a line: Inhibition of JAK3 (unknown origin) at 100 nM.
The target of data set [40] is Mitogen-activated protein kinase kinase kinase kinase 5 (Homo sapiens) (UniProt Q9Y4K4). The experiment in a line: Inhibition of KHS1 (unknown origin) at 100 nM.
Data set [41] concerns the target LIM domain kinase 1 (Homo sapiens) (UniProt P53667). Description: Inhibition of LIMK1 (unknown origin) at 100 nM.
For data set [42], the system named is Leucine-rich repeat serine/threonine-protein kinase 2 (Homo sapiens), Q5S007 [G2019S]. The experiment in a line: Inhibition of LRRK2 G2019S mutant (unknown origin) at 100 nM.
For data set [43], the system named is Hepatocyte. Description: Drug metabolism in rat hepatocytes assessed as glucuronidation. In kind it is ADME, cell-based.

Dual specificity mitogen-activated protein kinase kinase 2 (Homo sapiens), sequence (P36507 whole entry): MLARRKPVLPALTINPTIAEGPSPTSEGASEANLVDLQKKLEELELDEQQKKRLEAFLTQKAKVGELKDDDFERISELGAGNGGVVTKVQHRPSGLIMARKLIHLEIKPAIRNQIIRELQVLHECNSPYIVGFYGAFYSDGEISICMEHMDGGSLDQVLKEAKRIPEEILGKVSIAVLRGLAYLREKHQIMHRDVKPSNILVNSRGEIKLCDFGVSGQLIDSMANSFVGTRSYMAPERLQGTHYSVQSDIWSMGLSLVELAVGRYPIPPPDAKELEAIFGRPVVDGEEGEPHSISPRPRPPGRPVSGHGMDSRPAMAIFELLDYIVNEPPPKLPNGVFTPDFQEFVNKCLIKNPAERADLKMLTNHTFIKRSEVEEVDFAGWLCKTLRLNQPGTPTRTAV
Testis-specific serine/threonine-protein kinase 2 (Homo sapiens), sequence (Q96PF2 whole entry): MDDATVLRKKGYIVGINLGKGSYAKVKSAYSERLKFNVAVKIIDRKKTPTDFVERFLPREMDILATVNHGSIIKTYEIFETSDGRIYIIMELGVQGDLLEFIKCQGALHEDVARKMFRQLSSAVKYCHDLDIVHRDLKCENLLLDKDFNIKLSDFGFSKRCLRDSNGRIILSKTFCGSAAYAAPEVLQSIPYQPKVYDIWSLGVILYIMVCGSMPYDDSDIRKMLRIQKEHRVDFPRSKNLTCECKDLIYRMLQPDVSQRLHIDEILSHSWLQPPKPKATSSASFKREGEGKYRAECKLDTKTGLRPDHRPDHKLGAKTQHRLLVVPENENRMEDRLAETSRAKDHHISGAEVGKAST
Tyrosine-protein kinase Fgr (Homo sapiens), sequence (P09769 2-529 limits assumed): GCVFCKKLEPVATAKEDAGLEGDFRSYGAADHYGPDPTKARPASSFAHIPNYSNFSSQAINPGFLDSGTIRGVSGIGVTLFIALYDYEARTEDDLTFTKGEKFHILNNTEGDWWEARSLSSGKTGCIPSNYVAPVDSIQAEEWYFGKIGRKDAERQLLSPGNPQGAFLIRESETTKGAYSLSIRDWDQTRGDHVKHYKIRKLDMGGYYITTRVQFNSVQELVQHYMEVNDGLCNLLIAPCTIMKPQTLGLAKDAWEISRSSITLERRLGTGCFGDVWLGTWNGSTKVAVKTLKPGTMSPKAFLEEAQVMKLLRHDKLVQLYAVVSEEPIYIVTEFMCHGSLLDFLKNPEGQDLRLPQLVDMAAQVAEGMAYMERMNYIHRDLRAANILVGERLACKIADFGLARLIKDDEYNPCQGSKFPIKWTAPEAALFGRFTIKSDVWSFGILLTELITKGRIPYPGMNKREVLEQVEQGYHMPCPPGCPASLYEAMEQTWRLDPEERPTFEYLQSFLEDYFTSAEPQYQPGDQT
LIM domain kinase 1 (Homo sapiens), sequence (P53667 whole entry, looked up, the tested form may be a part): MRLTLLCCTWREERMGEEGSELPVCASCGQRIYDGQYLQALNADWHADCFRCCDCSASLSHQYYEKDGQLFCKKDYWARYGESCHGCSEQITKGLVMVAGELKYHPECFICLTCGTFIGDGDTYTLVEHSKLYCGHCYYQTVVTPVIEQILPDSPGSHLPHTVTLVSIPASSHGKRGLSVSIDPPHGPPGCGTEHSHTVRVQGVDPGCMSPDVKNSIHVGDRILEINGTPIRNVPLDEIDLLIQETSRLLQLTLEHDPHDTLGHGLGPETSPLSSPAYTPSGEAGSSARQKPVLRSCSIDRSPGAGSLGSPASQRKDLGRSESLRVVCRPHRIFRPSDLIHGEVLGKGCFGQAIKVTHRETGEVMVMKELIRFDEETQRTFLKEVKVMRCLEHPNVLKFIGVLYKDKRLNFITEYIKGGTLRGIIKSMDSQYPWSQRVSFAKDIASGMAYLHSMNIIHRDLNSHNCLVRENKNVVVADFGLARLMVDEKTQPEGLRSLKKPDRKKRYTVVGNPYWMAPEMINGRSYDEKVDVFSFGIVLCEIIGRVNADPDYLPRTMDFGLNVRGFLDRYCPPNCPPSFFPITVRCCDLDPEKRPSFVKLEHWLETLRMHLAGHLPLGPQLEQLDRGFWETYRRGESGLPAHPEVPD

One may read the inhibition as the drop in the measured response relative to a control, in per cent. The IC50 is the midpoint of a concentration-inhibition curve. Usually bioavailability stands for dose-corrected exposure relative to a reference, in per cent. Turning to `CC1(C)OCc2c(Nc3n[nH]c4ccccc34)nc(-c3cn[nH]c3)nc21`, the inhibition in data set [1] was 12.8%; in data set [2], 49.3%; in data set [3], 1.9%; in data set [4], -2.4%; in data set [5] it was 12.9%; in data set [6], 3.5%. In addition, the inhibition in data set [7] is 9.9%; in data set [8] it was 57.1%; in [9], 77.3%; in data set [10], -7.6%; in [11] it was 7%; in data set [12], 4.9%. Also, the inhibition in data set [13] is -2.9%; in data set [14], 97.2%; in data set [15], -5.2%; in [16], 0.7%; in data set [17], 6.2%; in data set [18] it was 4%. Also, the inhibition was 3.4% in data set [19]; 5.1% in [20]; 10.3% in [21]; 70.7% in data set [24]; 30.3% in data set [25]; 4.2% in [26]. For the same molecule, the inhibition in [27] was 1.2%; in [28], 3.1%; in data set [29], -3.7%; in data set [30], -3.6%; in data set [31], 13.3%; in [32] it was -4.2%. In addition, the inhibition in [33] was found to be 52.6%; in [34], 16.1%; in data set [35] it was 23.1%; in [36], 40.7%; in data set [37] it was 83.7%; in [38], 65.6%. Moreover, the inhibition in [39] is 2.7%; in [40], 12.7%; in data set [41], 3.1%; in [42], 16%. In data set [22], the IC50 turned out to be 600 nM. For the same molecule, the bioavailability in [23] turned out to be 13%.
Turning to `CC1(C)OCc2c(Nc3n[nH]c4c(Cl)cccc34)nc(-c3cn[nH]c3)nc21`, in [43], the Drug metabolism entry is reported as “metabolite_detected”.
